{"source": "patent US8987220B2", "about": "“Production of reprogrammed cells with restored potential” (Nupotential, Inc., priority 2005, dated 2015)", "key": {"[1]": {"system": "bovine serial nuclear transfer donor somatic cells", "test": "Relative methylated cytosine by reverse-phase HPLC after ATRA treatment", "assay_type": "cell-based", "details": "10-50 nM ATRA, cultured until confluent", "experimental": "Bovine serial nuclear transfer donor somatic cells (a cell line that has never produced a successful live animal and which is characterized by low blastocyst development rates (<10%, P<0.001) and low pregnancy initiation rates (<1%, P<0.05)) were cultured in T-75 flasks until confluent in growth media (CON), or growth media treated with DMSO, or ATRA (DMSO vehicle); 10 nM, 50 nM, and 100 nM ATRA concentrations were used. Following […] treatment, the cells were collected and DNA from the cells was isolated. The DNA was then completely digested into single nucleotides for reverse-phase HPLC. Reverse-phase HPLC was performed as described by Cezar et al. to measure the relative levels of methylated cytosine residues."}, "GNMT": {"system": "GNMT", "test": "GNMT gene expression by real-time RT-PCR (GNMT/GAPD ratio)", "assay_type": "cell-based, bovine"}, "Oct4, Sox2 and nanog": {"system": "Oct4, Sox2 and nanog", "test": "RT-PCR for stem cell/pluripotency markers after ATRA", "assay_type": "cell-based, bovine", "details": "after ATRA treatment, data not shown", "experimental": "To determine whether differentiation potential was restored, bovine somatic cells were cultured in T-75 flasks until confluent in CON, DMSO, or ATRA media (same RA as in Example 1)."}, "primary rat hepatocytes": {"system": "primary rat hepatocytes", "test": "ATRA and adipogenic induction cocktail on primary hepatocytes", "assay_type": "cell-based", "experimental": "Primary rat hepatocytes were grown in media treated with 50-200 nM ATRA. Following treatment, cells were cultured under the same comparative conditions as described above for the bovine somatic cells, except an adipogenic induction cocktail (as described in EXAMPLE 2) was added to the T-75 flasks."}, "3T3 L1 cells": {"system": "3T3 L1 cells", "test": "ATRA followed by osteogenic induction media", "assay_type": "cell-based, murine", "experimental": "3T3 L1 cells were grown in media treated with 50-200 nM ATRA. Following ATRA treatment, cells were transferred to 6-well plates and exposed to osteogenic induction media containing DMEM, FBS, ascorbic acid 2-phosphate, dexamethasone, beta glycerophosphate, and vitamin D for 21 days."}, "bovine somatic cells": {"system": "bovine somatic cells", "test": "ATRA followed by adipogenic induction cocktail"}, "[2]": {"details": "50-200 nM ATRA then osteogenic induction 21 days"}}, "note": "Entries after “also recorded” stand apart in the source; their conditions may differ."}
{"compound": "CC1=C(/C=C/C(C)=C/C=C/C(C)=C/C(=O)O)C(C)(C)CCC1", "note": "[ATRA, all-trans retinoic acid]", "values": [{"measurement": "reduction in methylated cytosine compared to CON", "setting": "[1]", "result": "8-10%"}, {"measurement": "GNMT gene expression (ratio of GNMT to GAPD)", "setting": "GNMT; ATRA-treated growth media, real-time RT-PCR", "result": "upregulation"}, {"measurement": "response of GNMT transcription to ATRA", "setting": "GNMT; prior experiments", "result": "dose response"}, {"measurement": "expression of Oct4, Sox2 and nanog", "setting": "Oct4, Sox2 and nanog", "result": "upregulation and strong expression"}, {"measurement": "cell proliferation (confluency)", "setting": "primary rat hepatocytes; 50-200 nM ATRA then adipogenic induction media, day 4", "result": "proliferated significantly"}, {"measurement": "cell morphology", "setting": "primary rat hepatocytes; 50-200 nM ATRA, pronounced within 48 hours of induction media", "result": "Morphological changes"}, {"measurement": "alizarin staining for calcium phosphate mineralization", "setting": "3T3 L1 cells; [2]", "result": "positive staining; also recorded: calcium phosphate mineralization"}, {"measurement": "alkaline phosphatase staining for osteoblast-like cells", "setting": "3T3 L1 cells; [2]", "result": "positive staining"}, {"measurement": "osteocalcin and cbfa1 expression (osteoblast-specific markers)", "setting": "3T3 L1 cells; RT-PCR after ATRA and osteogenic induction", "result": "induction"}, {"measurement": "oil red-O staining (lipid)", "setting": "bovine somatic cells; ATRA then adipogenic induction 11-12 days", "result": "positive"}, {"measurement": "PPARγ gene expression (adipocyte differentiation marker)", "setting": "bovine somatic cells; PCR after induction, data not shown", "result": "induction"}, {"measurement": "cell morphology during exposure to ATRA", "setting": "bovine somatic cells; structures similar to embryoid bodies", "result": "significant morphological changes"}]}
